Molecules are shown by their SMILES.

Assay [1] concerns wildtype Wnt signaling cascade. The experiment in a line: HEK293 TOP assay (Super TopFlash luciferase reporter, Wnt-3a stimulated). To be noted: Homo sapiens, HEK293, 16 h, HEK293 TOP reporter cells, Wnt3a at EC50, 16 hours. Type of assay: cell-based. The essentials: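 HEK293 cells stably carrying Super TopFlash (TOP) run in parallel with FOP cells, 10000/well plated 24 h ahead, stimulated with recombinant human Wnt-3a. Compounds tested 50 μM to 15 nM in 3.16-fold steps in CAFTY buffer pH 7.4 with 2 mM Ca^2+ and 0.01% BSA; luciferase read-out.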

In assay [2] the test system is HEK293 cells cotransfected with the FOP control vector. The experiment in a line: HEK293 FOP assay (control reporter with non-functional TCF elements). It counts as cell-based. To be noted: Homo sapiens, 16 hours. The method in brief: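 Stable HEK293 line carrying FOP control reporter (randomized non-functional TCF sites, with pcDNA3), Geneticin-selected, plated 24 h before assay. Stimulated with recombinant human Wnt-3a (2500-5 ng/ml) and compounds 50 μM–15 nM (3.16-fold steps) in CAFTY buffer pH 7.4 with 2 mM Ca2+, 0.01% BSA, run parallel to TOP line.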

Assay [3] has as its target T1, TNKS2 (Homo sapiens, UniProt Q9H2K2).
T1 construct: purchased BPS Bioscience, San Diego, USA 80572 (TNKS2 Histone Ribosylation Assay Kit)
T1 sequence (Q9H2K2 1-1166): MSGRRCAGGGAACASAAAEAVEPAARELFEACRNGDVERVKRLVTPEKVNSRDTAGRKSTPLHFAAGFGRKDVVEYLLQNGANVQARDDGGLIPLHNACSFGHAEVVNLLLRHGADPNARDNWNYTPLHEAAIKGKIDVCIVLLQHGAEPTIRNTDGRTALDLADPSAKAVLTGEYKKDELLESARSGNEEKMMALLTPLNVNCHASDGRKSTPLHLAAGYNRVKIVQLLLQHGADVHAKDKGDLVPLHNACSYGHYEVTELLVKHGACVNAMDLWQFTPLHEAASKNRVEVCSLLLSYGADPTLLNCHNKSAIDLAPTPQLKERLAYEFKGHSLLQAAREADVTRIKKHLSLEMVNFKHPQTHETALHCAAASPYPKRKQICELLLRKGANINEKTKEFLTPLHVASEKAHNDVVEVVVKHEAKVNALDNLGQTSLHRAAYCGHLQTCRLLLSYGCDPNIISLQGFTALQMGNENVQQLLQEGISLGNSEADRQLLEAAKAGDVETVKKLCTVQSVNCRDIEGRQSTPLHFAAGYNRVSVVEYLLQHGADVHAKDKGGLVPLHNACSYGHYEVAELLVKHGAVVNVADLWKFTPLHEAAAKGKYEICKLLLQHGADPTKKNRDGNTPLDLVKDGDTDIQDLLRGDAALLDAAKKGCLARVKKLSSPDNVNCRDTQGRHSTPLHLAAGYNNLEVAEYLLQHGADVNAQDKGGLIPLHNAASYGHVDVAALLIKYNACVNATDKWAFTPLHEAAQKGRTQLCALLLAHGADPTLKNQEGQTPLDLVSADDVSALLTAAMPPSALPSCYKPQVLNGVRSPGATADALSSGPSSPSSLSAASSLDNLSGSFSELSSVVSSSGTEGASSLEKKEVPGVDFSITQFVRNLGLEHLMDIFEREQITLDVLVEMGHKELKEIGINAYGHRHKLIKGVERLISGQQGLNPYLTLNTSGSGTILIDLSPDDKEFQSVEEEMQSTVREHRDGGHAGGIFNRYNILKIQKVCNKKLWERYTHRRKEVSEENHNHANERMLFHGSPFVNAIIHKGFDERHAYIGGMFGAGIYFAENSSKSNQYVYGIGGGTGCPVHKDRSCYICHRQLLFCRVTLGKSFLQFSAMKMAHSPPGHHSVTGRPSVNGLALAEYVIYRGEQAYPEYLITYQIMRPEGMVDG
The experiment in a line: TNKS2 Assay B (auto-parsylation, [3H]-NAD+ SPA). As to conditions: 6 nM TNKS2, auto-parsylation, over night at room temperature. It counts as biochemical.

Usually IC50 stands for the concentration needed to halve the response being measured. A high value points to weaker potency. For `Cc1cc(C)n2ncc(C(=O)NC3CCC(C(=O)Nc4ccc(F)cc4Cl)CC3C)c2n1` (stereo not drawn) [Example 42, N-{4-[(2-chloro-4-fluorophenyl)carbamoyl]-2-methylcyclohexyl}-5,7-dimethylpyrazolo[1,5-a]pyrimidine-3-carboxamide], the values for the IC50 in assay [1], in assay [2] and in assay [3] were 120 nM, not below 50000 nM and 120 nM, respectively.
`O=C(N[C@H]1CC[C@H](C(=O)Nc2ccc(F)cc2Cl)CC1)c1cnn2cccnc12` [Example 43, N-{trans-4-[(2-chloro-4-fluorophenyl)carbamoyl]cyclohexyl}pyrazolo[1,5-a]pyrimidine-3-carboxamide]: the figures for the IC50 in assay [1], in assay [2] and in assay [3] were 130 nM, not below 50000 nM and 74 nM, respectively.
Regarding `Cc1cc(C)n2ncc(C(=O)N[C@H]3CC[C@H](C(=O)Nc4ccc(F)cc4Cl)CC3)c2n1` [Example 44, N-{trans-4-[(2-chloro-4-fluorophenyl)carbamoyl]cyclohexyl}-5,7-dimethylpyrazolo[1,5-a]pyrimidine-3-carboxamide], the results for the IC50 in assay [1], in assay [2] and in assay [3] were 81 nM, not below 50000 nM and 150 nM, respectively.
The like results for `O=C(N[C@H]1CC[C@H](C(=O)Nc2ccc(F)cc2Cl)CC1)c1cnc2cccnn12` [Example 45, N-{trans-4-[(2-chloro-4-fluorophenyl)carbamoyl]cyclohexyl}imidazo[1,2-b]pyridazine-3-carboxamide] were, in that order, 160 nM, not below 50000 nM and 130 nM.
The corresponding values for `CC(=O)c1cnc2c(C(=O)N[C@H]3CC[C@H](C(=O)Nc4ccc(F)cc4Cl)CC3)cnn2c1C` [Example 46, 6-acetyl-N-{trans-4-[(2-chloro-4-fluorophenyl)carbamoyl]cyclohexyl}-7-methylpyrazolo[1,5-a]pyrimidine-3-carboxamide] are 97 nM, not below 50000 nM and 25 nM.
The like results for `O=C(N[C@H]1CC[C@H](C(=O)Nc2ccc(F)cc2Cl)CC1)c1cnc2ccc(Cl)nn12` [Example 47, 6-chloro-N-{trans-4-[(2-chloro-4-fluorophenyl)carbamoyl]cyclohexyl}imidazo[1,2-b]pyridazine-3-carboxamide] were, in that order, 390 nM, 16000 nM and 420 nM.
As to `O=C(N[C@H]1CC[C@H](C(=O)Nc2ccc(F)cc2Cl)CC1)c1cnc2ccc(N3CCOCC3)nn12` [Example 48, N-{trans-4-[(2-chloro-4-fluorophenyl)carbamoyl]cyclohexyl}-6-(morpholin-4-yl)imidazo[1,2-b]pyridazine-3-carboxamide], the IC50 worked out at 410 nM in assay [1], 14000 nM in assay [2] and 310 nM in assay [3].
The like results for `CN1CCN(c2ccc3ncc(C(=O)N[C@H]4CC[C@H](C(=O)Nc5ccc(F)cc5Cl)CC4)n3n2)CC1` [Example 49, N-{trans-4-[(2-chloro-4-fluorophenyl)carbamoyl]cyclohexyl}-6-(4-methylpiperazin-1-yl)imidazo[1,2-b]pyridazine-3-carboxamide] were, in that order, 680 nM, 32000 nM and 130 nM.
The corresponding values for `COc1ccc2ncc(C(=O)N[C@H]3CC[C@H](C(=O)Nc4ccc(F)cc4Cl)CC3)n2n1` [Example 50, N-{trans-4-[(2-chloro-4-fluorophenyl)carbamoyl]cyclohexyl}-6-methoxyimidazo[1,2-b]pyridazine-3-carboxamide] are 350 nM, not below 50000 nM and 170 nM.
On to `O=C(N[C@H]1CC[C@H](C(=O)Nc2ccc(F)cc2Cl)CC1)c1cnc2ccc(N3CCCC3)nn12` [Example 51, N-{trans-4-[(2-chloro-4-fluorophenyl)carbamoyl]cyclohexyl}-6-(pyrrolidin-1-yl)imidazo[1,2-b]pyridazine-3-carboxamide], for which the IC50 in assay [1] was 290 nM; in assay [2], not below 50000 nM; in assay [3], 31 nM.

For the origin of these results see US20180148418A1, “AMIDO-SUBSTITUTED CYCLOHEXANE DERIVATIVES” (Bayer Pharma Aktiengesellschaft, priority 2015, published 2018).
